Measured values taken from patent US12156915B2, “Selected artemisinin dimers for the treatment of lashmaniasis” (priority 2020, dated 2024).
pIC50: −log10 of the molar value. Where “and” joins values, the source holds several entries; their conditions need not be identical. Equal entries are not always repeated. Entries after “also recorded” stand apart in the source; their conditions may differ.

Key:
[1] = system: L. donovani promastigotes; assay: Annexin V binding apoptosis assay (Annexin V/Propidium Iodide flow cytometry); type: cell-based, Leishmania donovani; settings: for apoptotic effect on promastigotes: dimers 14 μM, artemisinin 35 μM, 24 to 72 hrs
Description: Apoptosis, also known as programmed cell death, is a physiological process of removal of unwanted cells (37). In one of the earlier events, the process of apoptosis includes translocation of membrane phosphatidylserine from the inner side of the cell membrane to the surface (38). Annexin V is a Ca^++ dependent phospholipid-binding protein which has a high affinity for phosphatidylserine (39). So FITC-labeled Annexin V can be used for the analysis of exposed PS using a flow cytometer (40). Apoptosis analysis was done by flow cytometry using Annexin V/Propidium Iodide staining method. […] 1×10^7 promastigote cells/ml were treated with artemisinin (35 μM), dimer Morpholine (14 μM) and dimer GABA (14 μM). Aliquots were withdrawn at different time intervals and stained with FITC-Annexin V and Propidium Iodide. The cell was analyzed by flow-cytometry. […] 50,000 in a gated event were run in a FL2 (Propidium Iodide)/FL1 (Annexin FITC) and analyzed by quadrangle plot.

[2] = system: intracellular amastigote form of L. donovani parasite in differentiated THP1 cells; assay: Parasite rescue and transformation assay (macrophage internalized amastigotes); type: cell-based, Leishmania donovani; settings: for selectivity index (SI): IC50 of cytotoxicity divided by IC50 in parasite rescue and transformation assay; for pIC50: Leishmania donovani, THP-1, parasite rescue and transformation assay, read-out: IC50 anti-leishmanial activity, intracellular amastigote
Method: This assay is based on the previously published protocol by Jain et al. (35). A 3-day old culture of THP1 cells in the exponential phase was diluted with RPMI medium to 2.5×10^5 cells/ml. PMA was added to final a concentration of 25 ng/ml. PMA treated culture was dispensed in clear flat bottom culture plates and incubated overnight at 37° C. in a 5% CO2 incubator. The plates with differentiated THP1 Cells were washed with serum-free medium with the help of Molecular device AquaMax 4000. A 5-6-day old L. donovani promastigote culture diluted to 5×10^6 cells/ml was added over differentiated THP1 cells. The Macrophage cells to parasite ratio for infection was 1:10. The plates were incubated for 24 hrs. After 24 hrs., the plates were again washed with the help of AquaMax 4000 and the serum-free medium was replaced by a medium with diluted test samples. The plates were placed again in a CO2 incubator at […] for 48 hrs. After 48 hrs., the macrophage amastigote plates were washed and treated with 0.05% SDS for 30 secs., and diluted SDS medium was immediately replaced with complete RPMI medium. Plates were incubated for amastigote to promastigote transformation, and promastigote growth at […] for 48 hrs. After 48 hrs., 5 μl of alamar blue was added to each well of macrophage amastigote assay plates, and the plates were incubated further for 24 hrs. Standard fluorescence was measured on a Fluostar Galaxy fluorometer (BMG LabTechnologies) at 544 nm ex, 590 nm em. Xlfit 5.3.1 software has generated all dose response curves.

[3] = system: promastigote form of L. donovani parasite; assay: Leishmania donovani promastigote assay (alamar blue); type: cell-based; settings: read-out: IC50 anti-leishmanial activity, promastigote
Method: THP-1 cells (human monocytic leukemia cells) were made available by the American Type Culture Collection (ATCC) and were maintained in RPMI 1640 media (Life-Technologies) supplemented with Sodium Pyruvate, Glutamine, HEPES (Life-81 Technologies) and 10% heat-inactivated FBS (Sigma). The culture was maintained at 37° C. in 5% CO2 incubator. THP1 cells Subculture was done every 3-4 days. Promastigote forms of Leishmania donovani (S1 strain) was grown in RPMI 1640 medium at pH 7.4 supplemented with 10% fetal bovine serum. The culture was maintained at 26° C. by incubator. Subculture was done every 3-4 days. The promastigote assay was based on alamar blue base growth analysis (33). A 3-4 day old promastigote culture in the exponential phase was diluted with RPMI 1640 medium, to 1×10^6 cells/ml. Artemisinin dimer samples were diluted to stock concentration of 2 mg/ml. Artemisinin dimer samples were dispensed in culture plates and diluted with a promastigote culture so the final highest concentration of samples was 10 μg/ml, and highest concentration of parent artemisinin was 40 μg/ml. The culture with the highest concentration of each artemisinin dimer was serially diluted in 1:5 ratio to 6 different concentrations. All artemisinin dimers were tested in triplicate. […] Standard fluorescence was measured on a Fluostar Galaxy fluorometer (BMG LabTechnologies) at 544 nm ex, 590 nm em. […]

[4] = THP1 cytotoxicity assay (alamar blue); type: cell-based; settings: human, PMA-differentiated THP1 cells, 48 hrs + 24 hrs alamar blue
Method: THP-1 cells (human monocytic leukemia cells) were made available by the American Type Culture Collection (ATCC) and were maintained in RPMI 1640 media (Life-Technologies) supplemented with Sodium Pyruvate, Glutamine, HEPES (Life-81 Technologies) and 10% heat-inactivated FBS (Sigma). The culture was maintained at 37° C. in 5% CO2 incubator. THP1 cells Subculture was done every 3-4 days. Promastigote forms of Leishmania donovani (S1 strain) was grown in RPMI 1640 medium at pH 7.4 supplemented with 10% fetal bovine serum. The culture was maintained at 26° C. by incubator. Subculture was done every 3-4 days.
A 3-day old culture of THP1 cells in the exponential phase was diluted with RPMI medium to 2.5×10^5 cells/ml. PMA was added to final a concentration of 25 ng/ml. PMA treated culture was dispensed in clear flat bottom culture plates and incubated overnight at 37° C. in a 5% CO2 incubator. The plates with differentiated THP1 cells were washed with serum-free medium with the help of Molecular device AquaMax 4000 and the serum-free medium was replaced by a medium with diluted test samples. The plates were placed again in a CO2 incubator at […] for 48 hrs. […] Standard fluorescence was measured on a Fluostar Galaxy fluorometer (BMG LabTechnologies) at 544 nm ex, 590 nm em. […]

SMILES	apoptotic effect on promastigotes [1]	selectivity index (SI) [2]	pIC50 [2]	IC50 at 48 h [4]	also measured
C[C@H]1[C@@H](OCC(CO[C@H]2O[C@@H]3O[C@@]4(C)CC[C@H]5[C@H](C)CC[C@@H]([C@H]2C)[C@@]35OO4)N2CCOCC2)OC2O[C@@]3(C)CC[C@H]4[C@H](C)CC[C@@H]1[C@@]24OO3 (stereo partly drawn) [Dimer Morpholine]	time-dependent apoptotic effect	> 2056 and > 2052	8.15	–	population in UR area of FL2/FL1 dot plot, 48 hrs compared to 24 hrs ([1]; 14 μM): significantly (P<0.0001) higher population; population in UR area of FL2/FL1 dot plot, 72 hrs compared to 24 hrs ([1]; 14 μM): significantly (P<0.0001) higher population; population in Upper Right (UR, late apoptosis) area of FL2 (PI)/FL1 (Annexin FITC) dot plot compared to control group ([1]; 14 μM, 24 hrs): significantly (P<0.0001) higher population; population in UR area of FL2/FL1 dot plot compared to control group ([1]; 14 μM, 48 hrs): significantly (P<0.0001) higher population; population in UR area of FL2/FL1 dot plot compared to control group ([1]; 14 μM, 72 hrs): significantly (P<0.0001) higher population
C[C@@H]1[C@H](O)[C@@H](C)/C=C/C=C/C=C/C=C/C=C/C=C/C=C/[C@H](O[C@@H]2O[C@H](C)[C@@H](O)[C@H](N)[C@@H]2O)C[C@@H]2O[C@](O)(C[C@@H](O)C[C@@H](O)[C@H](O)CC[C@@H](O)C[C@@H](O)CC(=O)O[C@H]1C)C[C@H](O)[C@H]2C(=O)O [amphotericin, amphotericin B]	–	201	7.21	–	–
C[C@@H]1CC[C@H]2[C@@H](C)C(=O)O[C@@H]3O[C@@]4(C)CC[C@@H]1[C@]32OO4 [artemisinin]	does not have; also recorded: does not have leishmanicidal or apoptotic effect	–	< 4.45	–	pIC50 [3]: 4.00; anti-leishmanial (leishmanicidal) effect ([1]; artemisinin at 35 μM): does not have an anti-leishmanial effect; also recorded: does not have leishmanicidal or apoptotic effect
C[C@H]1[C@@H](OC/C(CO[C@H]2O[C@@H]3O[C@]4(C)CC[C@H]5[C@H](C)CC[C@@H]([C@H]2C)[C@@]35OO4)=N\O)O[C@@H]2OC3(C)CC[C@H]4[C@H](C)CC[C@@H]1[C@@]24OO3 [dimer oxime]	–	–	–	11.4 µM	–
C[C@H]1[C@@H](OCC(CO[C@H]2O[C@@H]3O[C@@]4(C)CC[C@H]5[C@H](C)CC[C@@H]([C@H]2C)[C@@]35OO4)NCCc2c[nH]c3ccccc23)OC2O[C@@]3(C)CC[C@H]4[C@H](C)CC[C@@H]1[C@@]24OO3 (stereo partly drawn) [dimer tryptamine]	–	–	–	7.39 µM	–
N=C(N)c1ccc(OCCCCCOc2ccc(C(=N)N)cc2)cc1 [pentamidine]	–	63	6.26	–	–
